37 compounds from US10654816B2, “Compounds and compositions for treating conditions associated with NLRP activity” (NOVARTIS INFLAMMASOME RESEARCH, INC., priority 2017, dated 2020) can be followed below.

In the assay the test system is IL-1β production in PMA-differentiated THP-1 cells. Description: IL-1β production in PMA-differentiated THP-1 cells stimulated with gramicidin (hTHP-1 assay, HTRF readout; Procedures 1-3). The following applies: average, read-out: hTHP-1 IC50 (Average IC50 of compounds in hTHP-1 assay). Format: cell-based, human. Put shortly:
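PMA-differentiated (20 ng/ml, 16-18 h) THP-1 cells in RPMI with 2% FBS, 50,000 cells/well, preincubated 1 h with compound (final 0.0017-100 μM, 0.37% DMSO), then stimulated with 5 μM gramicidin for 2 h. IL-1β in cell-free supernatant measured by HTRF (620/668 nm).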
(TR-FRET usually uses a lanthanide donor and a delayed reading to cut background.)

The mark [1] stands for this setting: Homo sapiens, THP-1, hTHP-1 assay containing 2% fetal bovine serum, given as bound.
Setting [2] is: Homo sapiens, THP-1, hTHP-1 assay containing 2% fetal bovine serum, class symbols.

SMILES strings stand for the structures. Read-outs that look alike come from different tables or passages of the source. Some results are limits rather than exact numbers.

Usually IC50 stands for the concentration that inhibits the measured activity by half. Consider `CC(C)c1cc(F)cc(C(C)C)c1NC(=O)N=S(N)(=O)c1ccccc1-c1ccccc1` (stereo not shown) [Example 212, N′-((4-fluoro-2,6-diisopropylphenyl)carbamoyl)-[1,1′-biphenyl]-2-sulfonimidamide], for which the IC50 under setting [1] is more than 30 µM. Still for that read-out and setting: for `COCc1ccccc1S(N)(=O)=NC(=O)Nc1c(C(C)C)cc(F)cc1C(C)C` (stereo not shown) [Example 213, N′-((4-fluoro-2,6-diisopropylphenyl)carbamoyl)-2-(methoxymethyl)benzene-sulfonimidamide] the value was more than 30 µM; for `CC(C)c1cc(F)cc(C(C)C)c1NC(=O)N=S(N)(=O)c1cc(Cl)sc1Cl` (stereo not shown) [Example 214, 2,5-dichloro-N′-((4-fluoro-2,6-diisopropylphenyl)carbamoyl)thio-phene-3-sulfonimidamide], more than 30 µM. For the compound `CC(C)c1cc(F)cc(C(C)C)c1NC(=O)N=S(N)(=O)c1cccnc1` (stereo not shown) [Example 215, N′-((4-fluoro-2,6-diisopropylphenyl)carbamoyl)pyridine-3-sulfonimidamide], under setting [2], the IC50 is 5 to 30 µM. Consider `CC(C)c1cc(F)cc(C(C)C)c1NC(=O)N=S(N)(=O)c1ccc2c(c1)OCO2` (stereo not shown) [Example 216, N′-((4-fluoro-2,6-diisopropyl-phenyl)carbamoyl)benzo[d][1,3]dioxole-5-sulfonimidamide], for which the IC50 under setting [1] is more than 30 µM. As for `Cc1cc(S(N)(=O)=NC(=O)Nc2c(C(C)C)cc(F)cc2C(C)C)c(C)o1` (stereo not shown) [Example 217, N′-((4-fluoro-2,6-diisopropylphenyl)carbamoyl)-2,5-dimethylfuran-3-sulfonimidamide], under setting [2], the IC50 was in the range of 5 to 30 µM.

As to `CC(C)c1cc(F)cc(C(C)C)c1NC(=O)N=S(N)(=O)c1cnc2ccccc2c1` (stereo not shown) [Example 218, N′-((4-fluoro-2,6-diisopropyl-phenyl)carbamoyl)quinoline-3-sulfonimidamide], under setting [2], the IC50 was 1 to 5 µM. Turning to `CC(C)c1cc(F)cc(C(C)C)c1NC(=O)N=S(N)(=O)c1cnc2n1CCC2` (stereo not shown) [Example 219, N′-((4-fluoro-2,6-diisopropylphenyl)carbamoyl)-6,7-dihydro-5H-pyrrolo[1,2-a]imidazole-3-sulfonimidamide], the IC50 under setting [1] is more than 30 µM. Take `Cc1ccc(S(N)(=O)=NC(=O)Nc2c(C(C)C)cc(F)cc2C(C)C)nc1` (stereo not shown) [Example 220, N′-((4-fluoro-2,6-diisopropylphenyl)carbamoyl)-5-methylpyridine-2-sulfonimidamide]: the IC50 under setting [2] lay in the range of 5 to 30 µM. Consider `Cc1oc(S(N)(=O)=NC(=O)Nc2c3c(nc4c2CCC4)CCC3)cc1C(C)(C)O` (stereo not shown) [Example 221, N′-((1,2,3,5,6,7-hexahydrodicyclopenta[b,e]pyridin-8-yl)carbamoyl)-4-(2-hydroxypropan-2-yl)-5-methylfuran-2-sulfonimidamide], for which, under setting [2], the IC50 lay in the range of 0.04 to 0.2 µM. Same read-out and setting: to `Cc1oc(S(N)(=O)=NC(=O)Nc2c(C(C)C)cncc2C(C)C)cc1C(C)(C)O` (stereo not shown) [Example 222, N′-((3,5-diisopropylpyridin-4-yl)carbamoyl)-4-(2-hydroxypropan-2-yl)-5-methylfuran-2-sulfonimidamide] belongs 0.2 to 1 µM. As to `CC(C)(O)c1ncc(S(N)(=O)=NC(=O)Nc2c3c(cc4c2CC4)CC3)s1` (stereo not shown) [Example 226, 2-(2-Hydroxypropan-2-yl)-N′-(tricyclo[6.2.0.03,6]deca-1,3(6),7-trien-2-ylcarbamoyl)thiazole-5-sulfonimidamide], the IC50 under setting [2] fell in the range of 0.008 to 0.04 µM. On the same count and under the same terms, to `NS(=O)(=NC(=O)Nc1c2c(c(F)c3c1CCC3)CCC2)c1ccc(O)cc1F` (stereo not shown) [Example 229, 2-Fluoro-N′-(8-fluoro-1,2,3,5,6,7-hexahydro-s-indacen-4-ylcarbamoyl)-4-hydroxybenzenesulfonimidamide] belongs 1 to 5 µM; to `CC(C)(O)c1ncc(S(N)(=O)=NC(=O)Nc2c3c(cc4c2CCC4O)CCC3)s1` (stereo not shown) [Example 230], 1 to 5 µM; to `COC1CN(Cc2ccc(S(N)(=O)=NC(=O)Nc3c4c(cc5c3CCC5)CCC4)cc2)C1` (stereo not shown) [Example 231], 1 to 5 µM. `COCCN(C)Cc1ccc(S(N)(=O)=NC(=O)Nc2c3c(cc4c2CCC4)CCC3)cc1` (stereo not shown) [Example 232, N′-(1,2,3,5,6,7-hexahydro-s-indacen-4-ylcarbamoyl)-4-(((2-methoxyethyl)(methyl)amino)meth-yl)benzenesulfonimidamide]: under setting [2], the IC50 lay within 1 to 5 µM. Same read-out and setting: for `NS(=O)(=NC(=O)Nc1c2c(cc3c1CCC3)CCC2)c1ccc(CO)cc1` (stereo not shown) [Example 233, 1-[amino[4-(hydroxymethyl)phenyl]oxo-λ^6-sulfanylidene]-3-(1,2,3,5,6,7-hexahydro-s-indacen-4-yl)urea] the value was 1 to 5 µM. Turning to `NS(=O)(=NC(=O)Nc1c2c(cc3c1CCC3)CCC2)c1ccc(CN2CCOCC2)cc1` (stereo not shown) [Example 234, N′-(1,2,3,5,6,7-hexahydro-s-indacen-4-ylcarbamoyl)-4-(morpholino-methyl)benzenesulfonimidamide], the IC50 under setting [2] lay within 1 to 5 µM.

Turning to `NS(=O)(=NC(=O)Nc1c2c(cc3c1CCC3)CCC2)c1ccc(CN2CCC(F)(F)C2)cc1` (stereo not shown) [Example 235, 4-((3,3-Difluoropyrrolidin-1-yl)methyl)-N′-(1,2,3,5,6,7-hexahydro-s-indacen-4-ylcarbamoyl)benzenesulfonimidamide], the IC50 under setting [2] fell in the range of 1 to 5 µM.

For `NS(=O)(=NC(=O)Nc1c2c(cc3c1CCC3)CCC2)c1ccc(CN2CCCC2)cc1` (stereo not shown) [Example 236, N′-(1,2,3,5,6,7-hexahydro-s-indacen-4-ylcarbamoyl)-4-(pyrrolidin-1-ylmethyl)benzenesulfonimidamide], under setting [2], the IC50 was 1 to 5 µM. For the compound `NS(=O)(=NC(=O)Nc1c2c(cc3c1CCC3)CCC2)c1ccc(CN2CCC2)cc1` (stereo not shown) [Example 237, 4-(Azetidin-1-ylmethyl)-N′-(1,2,3,5,6,7-hexahydro-s-indacen-4-ylcarbamoyl)benzenesulfonimidamide], the IC50 under setting [2] was in the range of 1 to 5 µM.

`C=CCN(C)Cc1ccc(S(N)(=O)=NC(=O)Nc2c3c(cc4c2CCC4)CCC3)cc1` (stereo not shown) [Example 238, 4-((Allyl(methyl)amino)methyl)-N′-(1,2,3,5,6,7-hexahydro-s-indacen-4-ylcarbamoyl)benzenesulfonimidamide]: the IC50 under setting [2] fell in the range of 1 to 5 µM. `C#CCN(C)Cc1ccc(S(N)(=O)=NC(=O)Nc2c3c(cc4c2CCC4)CCC3)cc1` (stereo not shown) [Example 239, N′-(1,2,3,5,6,7-hexahydro-s-indacen-4-ylcarbamoyl)-4-((methyl(prop-2-ynyl)amino)methyl)benzene-sulfonimidamide]: under setting [2], the half-maximal inhibitory concentration (IC50) lay in the range of 1 to 5 µM.

For `CN(Cc1ccc(S(N)(=O)=NC(=O)Nc2c3c(cc4c2CCC4)CCC3)cc1)CC1CC1` (stereo not shown) [Example 240, 4-(((Cyclopropyl-methyl)(methyl)amino)methyl)-N′-(1,2,3,5,6,7-hexahydro-s-indacen-4-ylcarbamoyl)benzenesulfonimidamide], the IC50 under setting [2] lay within 1 to 5 µM.

For `CN(Cc1ccc(S(N)(=O)=NC(=O)Nc2c3c(cc4c2CCC4)CCC3)cc1)CC(F)F` (stereo not shown) [Example 241, 4-(((2,2-Difluoroethyl)(methyl)amino)methyl)-N′-(1,2,3,5,6,7-hexahydro-s-indacen-4-ylcarbamoyl)benzenesulfonimidamide], the IC50 under setting [2] lay within 1 to 5 µM. `COCc1ccc(S(N)(=O)=NC(=O)Nc2c3c(cc4c2CCC4)CCC3)cc1` (stereo not shown) [Example 242, N′-(1,2,3,5,6,7-hexahydro-s-indacen-4-ylcarbamoyl)-4-(methoxymethyl)benzenesulfonimidamide]: under setting [2], the IC50 fell in the range of 1 to 5 µM. The same measure, in the same setting: for `NCc1ccc(S(N)(=O)=NC(=O)Nc2c3c(cc4c2CCC4)CCC3)cc1` (stereo not shown) [Example 243, 4-(Aminomethyl)-N′-(1,2,3,5,6,7-hexahydro-s-indacen-4-ylcarbamoyl)benzenesulfonimidamide] the value was 1 to 5 µM. Still for that read-out and setting: to `NS(=O)(=NC(=O)Nc1c2c(cc3c1CCC3)CCC2)c1ccc(CN2CCCC2=O)cc1` (stereo not shown) [Example 244] belongs 5 to 30 µM. For `CN(C)S(=O)(=NC(=O)Nc1c2c(cc3c1CCC3)CCC2)c1cc(C(C)(C)O)cs1` (stereo not shown) [Example 245], under setting [2], the IC50 was 5 to 30 µM. On the same count and under the same terms, for `CNS(=O)(=NC(=O)Nc1c2c(cc3c1CCC3)CCC2)c1cc(C(C)(C)O)cs1` (stereo not shown) [Example 246] the value was 5 to 30 µM. Turning to `CN(C(=O)N=S(N)(=O)c1cnc(C(C)(C)O)s1)c1c2c(cc3c1CCC3)CCC2` (stereo not shown) [Example 248, N′-((1,2,3,5,6,7-hexahydro-s-indacen-4-yl)(methyl)carbamoyl)-2-(2-hydroxypropan-2-yl) thiazole-5-sulfonimidamide], the IC50 (hTHP-1 assay containing 2% fetal bovine serum, class symbols) was 5 to 30 µM.

Turning to `CC(=O)NS(=O)(=NC(=O)Nc1c2c(cc3c1CCC3)CCC2)c1cnc(C(C)(C)O)s1` (stereo not shown) [Example 250], the IC50 under setting [2] lay in the range of 5 to 30 µM. Same read-out and setting: to `COC(=O)CCC(=O)N(C)Cc1ccc(S(N)(=O)=NC(=O)Nc2c3c(cc4c2CCC4)CCC3)cc1` (stereo not shown) [Example 251] belongs 1 to 5 µM. `CN(Cc1ccc(S(N)(=O)=NC(=O)Nc2c3c(cc4c2CCC4)CCC3)cc1)C(=O)CCC(=O)O` (stereo not shown) [Example 252]: the IC50 under setting [1] was more than 30 µM. For `CC(C)c1ccc(C#N)c(C(C)C)c1NC(=O)N=S(N)(=O)c1ccc(C(C)(C)O)s1` (stereo not shown) [Example 254, N′-((3-cyano-2,6-diisopropylphenyl)carbamoyl)-5-(2-hydroxypropan-2-yl)thiophene-2-sulfonimidamide], under setting [2], the IC50 lay within 1 to 5 µM. Take `CCc1ccc2cnn(C)c2c1NC(=O)N=S(N)(=O)c1ncc(C(C)(C)O)s1` (stereo not shown) [Example 255, N′-((6-ethyl-1-methyl-1H-indazol-7-yl)carbamoyl)-5-(2-hydroxypropan-2-yl)thiazole-2-sulfonimidamide]: the IC50 under setting [2] lay in the range of 5 to 30 µM.

Consider `CCc1ccc2cn(C)nc2c1NC(=O)N=S(N)(=O)c1ncc(C(C)(C)O)s1` (stereo not shown) [Example 256, N′-((6-ethyl-2-methyl-2H-indazol-7-yl)carbamoyl)-5-(2-hydroxypropan-2-yl)thiazole-2-sulfonimidamide], for which the IC50 under setting [1] is more than 30 µM.
